The subject of test [1] is polyclonal anti active JNK antibody #9251 (New England Biolabs NEB #9251). Put plainly: Fluorescence polarization binding of TAMRA-labelled JNK active-site peptides to anti-active JNK antibody. As to conditions: peptide at 5 nM. The protocol:
This polyclonal antibody detects all three isoforms of the SAPK1/JNK proteins only when they are activated by dual phosphorylation at threonine183/tyrosinel85. Binding of poly-clonal anti active JNK antibody #9251 (concentration: 0.02 mg/ml, equiv. 130 nM) to TAMRA-labelled P1*° peptide (at 5 nM) was measured at different antibody concentrations by fluorescence polarization. As a control, no binding of the antibody to the monophosphorylated TAMRA-P1° peptide (at 5 nM) is detected.
The results of this experiment are illustrated in FIG. 4. […] The polarization values dramatically increase when using the double-phosphorylated TAMRA-P1*° peptide in contrast to mono-phosphorylated labelled TAMRA-P1° peptide (sequences see below).
In general terms: Fluorescence polarisation rises when a labelled molecule tumbles more slowly, as on binding a larger partner.

In a further test the target is T1, PP2A phosphatase (Homo sapiens, UniProt P67775).
T1 construct: purchased Upstate Biotech 14-111 (lot no. 20574)
Put plainly: Direct phosphatase assay: inhibition of PP2A-dependent dephosphorylation of TAMRA-P1°* peptide (fluorescence polarization read-out). It is filed as biochemical.

For test [2], the system named is antibody NEB #9251 (polyclonal anti-active JNK antibody). Put plainly: Fluorescence correlation spectroscopy competition of the NEB #9251 antibody-P1°*-TAMRA complex with non-fluorescent peptides. It is filed as binding. To be noted: antibody 1:20 diluted, TAMRA-labelled peptide P1*° 5 nM.
In test [3] the test system is ac(K9)-p(S10)-specific antibody from New England Biolabs (#9711). Put plainly: Binding of TAMRA-labelled histone H3 peptides to ac(K9)-p(S10)-specific antibody. To be noted: FIG. 15 and 16. From the text:
(§1) The histone deacetylase assay uses fluorescently-labelled peptides (TAMRA dye as a label) derived from histone H3 sequence. In the assay two different polyclonal antibodies are used which bind specifically to acetylated lysine redidues (ac(K) at positions ac(K9) or […]). Acetylation of a single lysine results in a relative small change of the molecular structure of the aminoacid side chain. The resulting change in the binding affinity to acetyl-specific antibodies is in general difficult to detect in a homogeneous binding assay. According to the invention, therefore an additional modification (phosphorylation of serine at position (S10)) was included within the H3-peptide sequence to enhance the affinity of the peptides to the applied antibodies. From the results of three independing binding experiments (FIGS. 15-17) it is evident that dual-modified peptide conjugates confer a higher affinity for the applied antibodies when compared to mono-modified peptide conjugates. This characteristic is of great value to measure the different acetylation states of lysine residues using acetyl-specific antibodies. In principle, the described binding assay can be applied both for the detection of acetyltransferase or deacetylase activity, in particular histone acetyltransferase/deacetylase.

The subject of test [4] is p(S10)-ac(K14)-specific antibody from Upstate Biotech (#07-081). Put plainly: Binding of TAMRA-labelled histone H3 peptides to p(S10)-ac(K14)-specific antibody. As to conditions: FIG. 17.
Text: as §1

pIC50, pKd: −log10 of the molar value. *1 amine or outer side, *2 acyl side, *3 side chain or, on linkers, in order; H or OH if unused. Where a SMILES comes first, the peptide text is derived from it. Bridges are numbered along the chain shown (N, C = ends). Where no end group is shown, it is not given here. [ ]: non-standard residue; d: D form. Adda = CO[C@@H](Cc1ccccc1)[C@@H](C)/C=C(C)/C=C/[C@H](N[*:1])[C@H](C)C(=O)[*:2]; dAsp(3S-Me) = C[C@H](C(=O)[*:3])[C@@H](N[*:1])C(=O)[*:2]; d(γGlu) = O=C(O)[C@@H](CCC(=O)[*:2])N[*:1]; pY = N[C@@H](Cc1ccc(OP(=O)(O)O)cc1)C(=O)O; pT = C[C@@H](OP(=O)(O)O)[C@H](N)C(=O)O; NMeDha = C=C(NC)C(=O)O

T1 sequence (P30153 2-589): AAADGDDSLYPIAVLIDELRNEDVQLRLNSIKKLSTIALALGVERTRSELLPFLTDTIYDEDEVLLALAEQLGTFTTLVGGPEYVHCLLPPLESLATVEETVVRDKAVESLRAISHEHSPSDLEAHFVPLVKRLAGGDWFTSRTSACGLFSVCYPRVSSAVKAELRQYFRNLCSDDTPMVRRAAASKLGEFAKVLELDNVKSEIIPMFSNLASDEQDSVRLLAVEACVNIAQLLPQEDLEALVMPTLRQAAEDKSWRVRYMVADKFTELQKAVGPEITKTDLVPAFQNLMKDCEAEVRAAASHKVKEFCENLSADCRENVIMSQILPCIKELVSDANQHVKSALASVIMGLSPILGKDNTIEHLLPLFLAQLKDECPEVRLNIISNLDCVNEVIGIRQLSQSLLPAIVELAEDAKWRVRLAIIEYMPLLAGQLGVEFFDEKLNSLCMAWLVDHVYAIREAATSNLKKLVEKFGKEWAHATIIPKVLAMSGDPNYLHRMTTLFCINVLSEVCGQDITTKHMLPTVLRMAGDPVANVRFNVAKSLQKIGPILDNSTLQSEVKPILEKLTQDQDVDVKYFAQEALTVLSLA
T1 sequence (P67775 whole entry): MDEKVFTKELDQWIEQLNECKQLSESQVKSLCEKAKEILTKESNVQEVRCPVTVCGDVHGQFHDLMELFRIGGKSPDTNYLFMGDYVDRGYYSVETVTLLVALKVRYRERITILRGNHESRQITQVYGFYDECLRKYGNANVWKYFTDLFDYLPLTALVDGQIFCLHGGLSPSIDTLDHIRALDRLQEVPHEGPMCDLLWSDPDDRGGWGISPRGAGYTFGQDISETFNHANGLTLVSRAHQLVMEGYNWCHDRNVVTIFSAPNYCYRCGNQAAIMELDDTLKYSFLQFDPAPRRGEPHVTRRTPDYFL

For “5-TAMRA-AEEA-Lys-Phe-Met-Met-Thr-Pro-pTyr-Val-Val-Thr-Arg-NH2 (chain 1 KFMMTP; chain 2 YVVTR; not fully specified; 5-TAMRA-AEEA, phospho residue, C-terminal amide; printed: Lys-Phe-Met-Met-Thr-Pro-; printed: Tyr-Val-Val-Thr-Arg-) [TAMRA-P1°]”, the “Binding of the antibody to the peptide” value in test [1] (control) is “no binding”.

What is called pKd is −log10 of the Kd, conventionally taken in molar units. As to “5-TAMRA-AEEA-Lys-Phe-Met-Met-pThr-Pro-pTyr-Val-Val-Thr-Arg-NH2 (chain 1 KFMM; chain 2 YVVTR; not fully specified; 5-TAMRA-AEEA, pThr-Pro, phospho, C-terminal amide; printed: Lys-Phe-Met-Met-; printed: Tyr-Val-Val-Thr-Arg-) [P1*°-TAMRA]”, in test [1] (different antibody concentrations, read-out: Affinity of polyclonal anti-active-JNK antibody for peptide (KD)), the negative logarithm of the Kd (pKd) was 8.59.

For `C=C1C(=O)N[C@H](C)C(=O)N[C@@H](CC(C)C)C(=O)N[C@@H](C(=O)O)[C@H](C)C(=O)N[C@@H](CCCNC(=N)N)C(=O)N[C@@H](/C=C/C(C)=C/[C@H](C)[C@H](Cc2ccccc2)OC)[C@H](C)C(=O)N[C@@H](C(=O)O)CCC(=O)N1C` [microcystin-LR] (R[Adda][d(γGlu)][NMeDha][dA]L[dAsp(3S-Me)]-OH; lactam N-7), at PP2A phosphatase, the “Inhibition of PP2A” value is reported as “full inhibition”.

As for `C=C1[C@@H](O)[C@@H]2O[C@]3(CC[C@H](/C=C/[C@@H](C)[C@@H]4CC(C)=C[C@@]5(O[C@H](C[C@@](C)(O)C(=O)O)CC[C@H]5O)O4)O3)CC[C@H]2O[C@@H]1[C@@H](O)C[C@H](C)[C@H]1O[C@@]2(CCCCO2)CC[C@H]1C` [ocadaic acid], the pIC50 at PP2A phosphatase (PP2A 0.003 units, P1°*-TAMRA peptide 10 nM, 30° C., read-out: IC50 (half-maximal inhibitory concentration, PP2A-dependent dephosphorylation of TAMRA-P1°* peptide)) is 9.52.

For H-KFMM[pT]P[pY]VVTR-NH2 [P1*°], in test [2], the “Competition with TAMRA-labelled peptide P1*° for binding to the antibody” value (shortened to “Competition”) is “able to compete effectively”. Besides, the pIC50 in test [2] (read-out: IC50 (competition of antibody binding to TAMRA-labelled peptide P1*°)) is 8.30.

On to “H-Lys-Phe-Met-Met-Thr-Pro-pTyr-Val-Val-Thr-Arg-NH2 (chain 1 H-KFMMTP; chain 2 [pY]VVTR-NH2; not fully specified (C-terminus); also: chains 1 and 2 are one peptide continuing through pTyr) [P1°, monophosphorylated control peptide]”, for which the “Competition” value in test [2] is reported as “did note compete effectively”.

Take “H-Lys-Phe-Met-Met-pThr-Pro-Tyr-Val-Val-Thr-Arg-NH2 (chain 1 H-KFMM; chain 2 [pT]PYVVTR-NH2; not fully specified (C-terminus); also: chains 1 and 2 are one peptide continuing through pThr) [P1*, monophosphorylated control peptide]”: in test [2], the “Competition” value was “did note compete effectively”.

As for “TAMRA-A-R-K-p(S10)-T-T-G-K-A [peptide #13]”, the “Binding of the ac(K9)-p(S10)-specific antibody to the peptide” value in test [3] is reported as “only low binding”.

As to “TAMRA-A-R-K-p(S10)-T-T-G-ac(K14)-A-P [peptide #11]”, in test [4], the “Binding of the p(S10)-ac(K14)-specific antibody to the peptide” value is recorded as “binding”. Further, in test [3], the “Binding of the ac(K9)-p(S10)-specific antibody to the peptide” value was “only low binding”.

For the molecule “TAMRA-A-R-ac(K9)-S-T-T-G-K-A [peptide #12]”, the “Binding of the ac(K9)-p(S10)-specific antibody to the peptide” value in test [3] is reported as “only low binding”.

Turning to “TAMRA-A-R-ac(K9)-p(S10)-T-T-G-K-A-P [peptide #10]”, the “Binding of the p(S10)-ac(K14)-specific antibody to the peptide” value in test [4] is “only low binding”. Moreover, the “Binding of the ac(K9)-p(S10)-specific antibody to the peptide” value in test [3] was “binding”.

Source of the values: patent US20030235873A1, “Process for detecting enzyme activity in an immunoassay” (priority 2000, published 2003).
